Assay [1] concerns the target T1, HIV-1 protease (Human immunodeficiency virus type 1 group M subtype B, UniProt P04585). The assay is described as follows: biochemical. The note with it: for PROTEASE % INHIB.: Table II, enzyme HIV-1. In a few lines:
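A substrate biotinylated at the N-terminal arginine and FITC-labelled at the C-terminal lysine was incubated with HIV-1 protease (10 μl of 0.1 μM) and compound for 1 h in the dark at room temperature. Buffer was 0.1 M sodium acetate pH 5.5, 1.0 M NaCl, 0.05% NP-40. Labelled product was separated from substrate using streptavidin beads and filtration, and the fluorescence gave percent inhibition.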

Assay [2] has as its target T1, HIV-1 protease. The experiment in a line: biochemical. In a few lines:
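Biotinylated, FITC-labelled peptide substrate cleaved in 0.1 M sodium acetate pH 5.5, 1.0 M NaCl, 0.05% NP-40, room temperature. Filtered labelled product read by fluorescence; nonlinear least-squares fit.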

Where [3] appears, read: Table II, enzyme HIV-1, read-out: FITC KI.
The mark [4] stands for this setting: read-out: HIV Protease FITC Assay Ki.
[5] abbreviates: Table I, Dose 0.123 μM, read-out: Protease % Inhib.
The mark [6] stands for this setting: Table I, Dose 0.370 μM, read-out: Protease % Inhib.
[7] abbreviates: Table I, Dose 1.100 μM, read-out: Protease % Inhib.
[8] abbreviates: Table I, Dose 3.300 μM, read-out: Protease % Inhib.
The mark [9] stands for this setting: Table I, Dose 10.000 μM, read-out: Protease % Inhib.
The mark [10] stands for this setting: Table I, Dose 30.000 μM, read-out: Protease % Inhib.
The mark [11] stands for this setting: Table I, read-out: HIV Protease FITC Assay Ki.

“And” between values parts separate entries of the source, which are not always exact repeats. Equal values may be shown once. Where a name gives a salt, the structure may show the parent alone. Read-outs that look alike come from different tables or passages of the source. Where only a bound is given, the exact number is not on record here.

This note sets out measurements from patent publication US6169181A, “Compounds useful to treat retroviral infections” (Pharmacia & Upjohn Company, priority 1998, dated 2001).

With `CCC[C@]1(CCc2ccc(F)cc2)CC(O)=C([C@H](c2cccc(NS(=O)(=O)c3cn(C)cn3)c2)C(C)(C)C)C(=O)O1` (single isomer, unassigned) [Example 352, N-[3-{1(S or R)-(4-Hydroxy-5,6-dihydro-2-oxo-6(S or R)-(2-(4-fluorophenyl)ethyl)-6-propyl-2H-pyran-3-yl)-2,2-dimethyl-propyl}phenyl]-1-methyl-1H-imidazole-4-sulfonamide], the “PROTEASE % INHIB.” value at HIV-1 protease [1] (DOSE 0.123 (unit not given)) is listed as less than 10%; on HIV-1 protease [1] (DOSE 0.370 (unit not given)) it was 25.31%; on HIV-1 protease [1] (DOSE 1.100 (unit not given)) it was 47.78%; at HIV-1 protease [1] (DOSE 3.300 (unit not given)) it was 74.99%; on HIV-1 protease [1] (DOSE 10.000 (unit not given)), 85.86%; at HIV-1 protease [1] (DOSE 30.000 (unit not given)), 87.82%. The Ki at HIV-1 protease [2] (setting [3]) amounted to 168 nM.
For `Cn1cnc(S(=O)(=O)Nc2cccc(C(c3c(O)cc(C(CC4CC4)CC4CC4)oc3=O)C3CC3)c2)c1` (centres unmarked) [Example 97, N-(3-{Cyclopropyl-[6-(2-cyclopropyl-1-cyclopropylmethyl-ethyl)-4-hydroxy-2-oxo-2H-pyran-3-yl]-methyl}-phenyl)-1-methyl-1H-imidazole-4-sulfonamide], at HIV-1 protease [1] (read-out: Protease % Inhib), the inhibition at 0.123 µM was 105%, the inhibition at 0.37 µM came to 106%, the inhibition at 1.1 µM amounted to 110% and the inhibition at 3.3 µM came out at 107%. For the same molecule, at HIV-1 protease [1] (read-out: Protease % Inhib), the inhibition at 10 µM amounted to 116% and the inhibition at 30 µM came out at 115%. In addition, at HIV-1 protease [2] (setting [4]), the Ki is 1 nM.
In the case of `CN(c1cccc(C(c2c(O)c3c(oc2=O)CCCCCC3)C2CC2)c1)S(=O)(=O)c1ccc(C#N)cc1` (centres unmarked) [Example 192, 4-Cyano-N-methyl-N-[3-[cyclopropyl(5,6,7,8,9,10-hexahydro-4-hydroxy-2-oxo-2H-cycloocta[b]pyran-3-yl)methyl]phenyl]-benzenesulfonamide], the inhibition at 0.123 µM on HIV-1 protease [1] (setting [5]) was determined as 44%. On HIV-1 protease [1] (setting [6]), the inhibition at 0.37 µM came out at 76.3%. Further, the inhibition at 1.1 µM on HIV-1 protease [1] (setting [7]) worked out at 94%. The inhibition at 3.3 µM at HIV-1 protease [1] (setting [8]) was determined as 96.9%. The inhibition at 10 µM on HIV-1 protease [1] (setting [9]) is 103%. For the same molecule, the inhibition at 30 µM on HIV-1 protease [1] (setting [10]) is 94.4%. Also, on HIV-1 protease [2] (setting [11]), the inhibition constant Ki was 7.2 nM.
Regarding `CCCC1(CCc2ccccc2)CC(O)=C(C(c2cccc(NS(=O)(=O)c3ccc(C#N)cn3)c2)C(C)(C)C)C(=O)O1` (centres unmarked) [Example 251, 5-Cyano-N-[3-(1-[5,6-dihydro-4-hydoxy-2-oxo-6-(2-phenethyl)-6-propyl-2H-pyran-3-yl]-2,2-dimethylpropyl)phenyl]-2-pyridinesulfonamide], at HIV-1 protease [1] (read-out: Protease % Inhib), the inhibition at 0.123 µM came out at 70.8%, the inhibition at 0.37 µM is 90.6%, the inhibition at 1.1 µM stood at 97.7% and the inhibition at 3.3 µM is 94.5%. On HIV-1 protease [1] (read-out: Protease % Inhib), the inhibition at 10 µM was 94.2% and the inhibition at 30 µM is 93.2%. In addition, the Ki on HIV-1 protease [2] (setting [4]) worked out at 1.9 nM.
`COCCOCCOCCOc1ccc2c(O)c(C(c3cccc(NS(=O)(=O)c4cccc5cccnc45)c3)C3CC3)c(=O)oc2c1` (centres unmarked) [Example 153, N-(3-{Cyclopropyl-[7-(2-(2-(2-methoxyethoxy)-ethoxy)ethoxy)-4-hydroxycoumarin-3-yl]-methyl}-phenyl)-8-quinolinesulfonamide]: on HIV-1 protease [1] (setting [5]), the inhibition at 0.123 µM stood at 81.3%. Besides, on HIV-1 protease [1] (setting [6]), the inhibition at 0.37 µM is 91.1%. Also, the inhibition at 1.1 µM on HIV-1 protease [1] (setting [7]) is 100%. In addition, the inhibition at 3.3 µM at HIV-1 protease [1] (setting [8]) stood at 104%. The inhibition at 10 µM at HIV-1 protease [1] (setting [9]) came to 103%. Besides, at HIV-1 protease [1] (setting [10]), the inhibition at 30 µM came out at 101%. Besides, on HIV-1 protease [2] (setting [11]), the Ki was determined as 1.85 nM.
As to `CCCC1(CCC)CC(O)=C(C(CC)c2cccc(NS(=O)(=O)c3ccc(C#N)cc3)c2)C(=O)O1` (centres unmarked) [Example 46, 4-Cyano-N-[3-[1-(4-hydroxy-2-oxo-6,6-dipropyl-5,6-dihydro-2H-pyran-3-yl)-propyl]-phenyl]-benzenesulfonamide], the inhibition at 0.123 µM at HIV-1 protease [1] (setting [5]) came out at 85.9%. Moreover, the inhibition at 0.37 µM on HIV-1 protease [1] (setting [6]) is 99.2%. In addition, the inhibition at 1.1 µM on HIV-1 protease [1] (setting [7]) is 103%. Further, the inhibition at 3.3 µM on HIV-1 protease [1] (setting [8]) was determined as 97.6%. For the same molecule, at HIV-1 protease [1] (setting [9]), the inhibition at 10 µM came to 91.5%. In addition, at HIV-1 protease [1] (setting [10]), the inhibition at 30 µM was 74.1%. The Ki on HIV-1 protease [2] (setting [11]) is 2.92 nM.
Take `CCC(C1=C(O)CC(CCc2ccc(F)cc2)(CCc2ccc(F)cc2)OC1=O)c1cccc(NS(=O)(=O)c2ccc(C(N)=O)cn2)c1` (centres unmarked) [Example 333, N-[3-{1-(4-Hydroxy-5,6-dihydro-2-oxo-6,6-bis(2-(4-fluorophenyl)ethyl)-2H-pyran-3-yl)propyl}phenyl]-5-carbamoylpyridine-2-sulfonamide]: the “PROTEASE % INHIB.” value on HIV-1 protease [1] (DOSE 0.123 (unit not given)) worked out at 66.73%; on HIV-1 protease [1] (DOSE 0.370 (unit not given)) it was 85.07%; on HIV-1 protease [1] (DOSE 1.100 (unit not given)) it was 85.12%; on HIV-1 protease [1] (DOSE 3.300 (unit not given)), 93.69%; on HIV-1 protease [1] (DOSE 10.000 (unit not given)) it was 89.38%; on HIV-1 protease [1] (DOSE 30.000 (unit not given)), 77.91%. Besides, the Ki on HIV-1 protease [2] (setting [3]) was found to be 7.7 nM.
On to `Cn1ccnc1S(=O)(=O)Nc1cccc(C(c2c(O)cc(C(CC3CC3)CC3CC3)oc2=O)C2CC2)c1` (centres unmarked) [Example 100, N-(3-{Cyclopropyl-[6-(2-cyclopropyl-1-cyclopropylmethyl-ethyl)-4-hydroxy-2-oxo-2H-pyran-3-yl]-methyl}-phenyl)-1-methyl-1H-imidazole-2-sulfonamide], for which, on HIV-1 protease [1] (setting [5]), the inhibition at 0.123 µM was 103%. For the same molecule, the inhibition at 0.37 µM on HIV-1 protease [1] (setting [6]) was 101%. Further, the inhibition at 1.1 µM at HIV-1 protease [1] (setting [7]) was found to be 91%. At HIV-1 protease [1] (setting [8]), the inhibition at 3.3 µM was determined as 96.5%. Further, on HIV-1 protease [1] (setting [10]), the inhibition at 30 µM came out at 101%. Besides, the inhibition at 100 µM at HIV-1 protease [1] (Table I, Dose 100.000 μM, read-out: Protease % Inhib) worked out at 101%. For the same molecule, the Ki on HIV-1 protease [2] (setting [11]) was determined as 0.73 nM.
For `CCCC1(CCC)CC(O)=C(C(c2cccc(NS(=O)(=O)c3cccc4cccnc34)c2)C2CC2)C(=O)O1` (centres unmarked) [Example 49], on HIV-1 protease [1] (setting [5]), the inhibition at 0.123 µM was 111%. The inhibition at 0.37 µM at HIV-1 protease [1] (setting [6]) is 120%. The inhibition at 1.1 µM at HIV-1 protease [1] (setting [7]) amounted to 120%. Moreover, the inhibition at 3.3 µM at HIV-1 protease [1] (setting [8]) was 106%. For the same molecule, the inhibition at 10 µM on HIV-1 protease [1] (setting [9]) is 108%. Besides, the inhibition at 30 µM on HIV-1 protease [1] (setting [10]) amounted to 112%. Moreover, the Ki at HIV-1 protease [2] (setting [11]) is 0.96 nM.
In the case of `O=c1oc(C(CC2CC2)CC2CC2)cc(O)c1C(c1cccc(NS(=O)(=O)c2ccccn2)c1)C1CC1` (centres unmarked) [Example 99, N-(3-{Cyclopropyl-[6-(2-cyclopropyl-1-cyclopropylmethyl-ethyl)-4-hydroxy-2-oxo-2H-pyran-3-yl]-methyl}-phenyl)-2-pyridine-sulfonamide], at HIV-1 protease [1] (setting [5]), the inhibition at 0.123 µM was found to be 85.7%. The inhibition at 0.37 µM on HIV-1 protease [1] (setting [6]) is 102%. Besides, at HIV-1 protease [1] (setting [7]), the inhibition at 1.1 µM was determined as 108%. Also, at HIV-1 protease [1] (setting [8]), the inhibition at 3.3 µM came to 100%. Also, at HIV-1 protease [1] (setting [9]), the inhibition at 10 µM came out at 107%. At HIV-1 protease [1] (setting [10]), the inhibition at 30 µM stood at 103%. The inhibition constant Ki on HIV-1 protease [2] (setting [11]) turned out to be 0.66 nM.
`CCC(CCNC(=O)CCCCCCC(=O)N(C)CCS(=O)(=O)O)c1cc(O)c(C(c2cccc(NS(=O)(=O)c3cn(C)cn3)c2)C2CC2)c(=O)o1` (centres unmarked) [Example 110, 2-[[8-[[3-[3-[Cyclopropyl[3-[[(1-methyl-1H-imidazol-4-yl)sulfonyl]amino]phenyl]methyl]-4-hydroxy-2-oxo-2H-pyran-6-yl]pentyl]amino]-1,8-dioxooctyl]methylamino]-ethane sulfonic acid, monosodium salt]: at HIV-1 protease [1] (setting [5]), the inhibition at 0.123 µM was determined as 77.9%. In addition, the inhibition at 0.37 µM at HIV-1 protease [1] (setting [6]) is 82.7%. Also, the inhibition at 1.1 µM on HIV-1 protease [1] (setting [7]) is 95.1%. At HIV-1 protease [1] (setting [8]), the inhibition at 3.3 µM was found to be 99.1%. Also, the inhibition at 10 µM at HIV-1 protease [1] (setting [9]) came out at 99.2%. Further, the inhibition at 30 µM on HIV-1 protease [1] (setting [10]) came to 101%. Also, on HIV-1 protease [2] (setting [11]), the Ki was 3.26 nM and 3.63 nM.

As usually defined, the Ki is a measure of affinity in units of concentration, obtained from inhibition or displacement.
